{"source": "paper PMC10121968", "about": "“Fosgonimeton, a Novel Positive Modulator of the HGF/MET System, Promotes Neurotrophic and Procognitive Effects in Models of Dementia” (Neurotherapeutics, 2022)", "key": {"[1]": {"assay": "Fosgonimeton CNS distribution in mice", "assay_type": "in vivo, mouse", "conditions": "5 mg/kg fosgonimeton IV, whole brain, 0.16 h", "procedure": "Four C57BL/6 mice—2 males and 2 females—were treated with 5 mg/kg fosgonimeton via intravenous (IV) injection. At 0.16 h after dosing, animals were humanely killed and perfused with normal saline. The whole brain was collected and homogenized before determination of fosgonimeton and fosgo-AM tissue penetration by LC/MS/MS."}, "ERK (Thr202/Tyr204)": {"system": "ERK (Thr202/Tyr204)", "assay": "Phospho-ERK HTRF assay in HEK293 cells", "assay_type": "cell-based, human", "conditions": "HEK293, subthreshold HGF 0.1 ng/mL + fosgo-AM 1 µM, vs HGF alone", "description": "To determine phosphoactivation status of the intracellular signaling molecules ERK (Thr202/Tyr204) or AKT (Ser473), we used homogenous time-resolved fluorescence (HTRF) kits to assess phosphorylation status based on the energy transfer between donor and acceptor phospho-ERK (pERK) or phospho-AKT (pAKT) antibodies. HTRF kit processing for pERK (Phospho-ERK [Thr202/Tyr204] cellular Advanced kit, #64AERPEG, Cisbio, Codolet, France) and pAKT (Phospho-AKT [Ser473] cellular kit, #64AKSPEG, Cisbio, Codolet, France) were carried out per manufacturer instructions. In brief, HEK293 cells were grown at 37 °C, 5% CO2 in DMEM + 10% FBS until approximately 80% confluent. Cells were seeded in polystyrene-treated 96-well cell culture plates at approximately 50,000 cells/well and cultured overnight in 50 µL serum-free growth media. […] Fluorescence emission at 2 different wavelengths (665 nm and 620 nm) were measured on an Envision plate reader (PerkinElmer, Waltham, Massachusetts), and the HTRF ratio of the acceptor and donor emission signals for each well was calculated as follows: HTRF ratio = (665 nm/620 nm) × 10,000. […] Data were assessed for normality (Shapiro–Wilk) and homoscedasticity (Brown-Forsythe). Statistical significance was determined by one-way analysis of variance (ANOVA) with Tukey’s multiple comparison post-test. […]"}, "MET receptor": {"target": "T1, MET receptor (Homo sapiens, UniProt P08581)", "T1 construct": "pMET enzyme-linked immunosorbent assay (ELISA) of human embryonic kidney (HEK293) cell lysates; endogenous in cells; host or cells: HEK293 (ATCC CRL-1573)", "T1 sequence (P08581 308-1390 limits assumed)": "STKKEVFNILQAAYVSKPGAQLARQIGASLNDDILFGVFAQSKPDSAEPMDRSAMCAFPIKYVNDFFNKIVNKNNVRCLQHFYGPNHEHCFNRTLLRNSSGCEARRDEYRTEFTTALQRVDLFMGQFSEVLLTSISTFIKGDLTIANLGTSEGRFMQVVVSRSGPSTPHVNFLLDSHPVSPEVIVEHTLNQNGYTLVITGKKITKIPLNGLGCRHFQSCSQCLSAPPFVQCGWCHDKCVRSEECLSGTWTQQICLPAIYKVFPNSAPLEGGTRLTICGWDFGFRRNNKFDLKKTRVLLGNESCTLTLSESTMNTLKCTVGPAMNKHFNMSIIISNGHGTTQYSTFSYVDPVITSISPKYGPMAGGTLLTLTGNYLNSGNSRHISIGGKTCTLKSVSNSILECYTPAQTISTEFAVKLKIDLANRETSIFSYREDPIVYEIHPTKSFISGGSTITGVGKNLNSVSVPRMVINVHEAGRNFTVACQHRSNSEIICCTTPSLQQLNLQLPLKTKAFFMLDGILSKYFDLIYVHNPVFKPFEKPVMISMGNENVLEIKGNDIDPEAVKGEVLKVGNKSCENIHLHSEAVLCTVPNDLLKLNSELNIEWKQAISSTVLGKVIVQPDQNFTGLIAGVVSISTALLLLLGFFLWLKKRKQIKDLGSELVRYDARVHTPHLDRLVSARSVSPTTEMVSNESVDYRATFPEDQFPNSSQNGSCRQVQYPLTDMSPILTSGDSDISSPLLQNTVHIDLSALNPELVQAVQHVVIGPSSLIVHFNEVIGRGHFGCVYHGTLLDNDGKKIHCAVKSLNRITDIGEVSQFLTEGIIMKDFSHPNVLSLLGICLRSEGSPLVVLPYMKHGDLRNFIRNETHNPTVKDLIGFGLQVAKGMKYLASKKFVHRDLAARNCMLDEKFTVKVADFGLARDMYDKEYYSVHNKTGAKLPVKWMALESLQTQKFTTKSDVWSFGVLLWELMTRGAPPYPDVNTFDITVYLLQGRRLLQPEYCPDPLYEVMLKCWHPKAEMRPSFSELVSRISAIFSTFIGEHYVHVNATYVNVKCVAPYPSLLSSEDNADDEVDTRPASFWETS", "T1 sequence (P08581 25-307 limits assumed)": "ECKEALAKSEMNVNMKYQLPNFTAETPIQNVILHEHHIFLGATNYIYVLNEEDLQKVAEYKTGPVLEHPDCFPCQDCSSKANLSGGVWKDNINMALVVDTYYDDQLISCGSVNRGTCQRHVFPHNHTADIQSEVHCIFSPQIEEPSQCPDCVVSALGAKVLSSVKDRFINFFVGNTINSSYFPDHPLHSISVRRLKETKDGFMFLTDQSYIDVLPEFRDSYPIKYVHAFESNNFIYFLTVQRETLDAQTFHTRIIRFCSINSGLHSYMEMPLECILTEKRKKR", "assay": "Phosphorylated MET receptor (pMET) ELISA in HEK293 cell lysates", "assay_type": "cell-based", "conditions": "HEK293 cells, 1 ng/mL HGF, 0.001–100 nM, 15 min", "procedure": "Human embryonic kidney (HEK293, ATCC CRL-1573) cells were grown at 37 °C, 5% CO2 in Dulbecco's Modified Eagle Medium (DMEM) + 10% fetal bovine serum (FBS) in T-75 flasks until approximately 90% confluent and then seeded in polystyrene-treated 6-well plates for at least 8 h in serum-free growth media. Recombinant HGF protein (R&D Systems, Minneapolis, Minnesota) with or without experimental small-molecule treatment cocktails (Jubilant Biosys, Uttar Pradesh, India) were prepared in DMEM + 0.1% FBS and added to wells in triplicate for 15 min. Cells were lysed with 180 μL ice-cold RIPA buffer including a phosphatase inhibitor (PhosphataseArrest, G-Biosciences, St. Louis, Missouri) on ice for 15 min and then cleared by centrifugation at 16,000 g. Bicinchoninic acid (BCA) assays of lysates were used to normalize protein concentration across samples. Phosphorylated MET receptor (pMET) enzyme-linked immunosorbent assay (ELISA) kit processing was carried out according to the manufacturer’s instructions (Phospho-MET [Tyr1234/1235] Sandwich ELISA Kit, CST #7227C, Cell Signaling Technology, Danvers, Massachusetts). Raw absorbance signals were scaled between subthreshold (1 ng/mL HGF) and saturating (10 ng/mL HGF) controls such that HGF 1 ng/mL = 1 and HGF 10 ng/mL = 10. The statistical difference from subthreshold control was determined by Student’s t-test. […]"}, "[2]": {"assay": "Plasma PK in rats after SC injection", "assay_type": "in vivo, rat", "procedure": "Four male rats were treated with 10 mg/kg fosgo-AM in DMSO via SC injection. Blood was serially collected at 0.08, 0.25, 0.5, 1, 2, and 4 h after dosing. Plasma was obtained by centrifugation with 2% disodium ethylenediaminetetraacetic acid (EDTA) as an anticoagulant. Plasma samples were precipitated with acetonitrile containing internal standard, and the concentration of fosgo-AM was determined by LC/MS/MS.\nThis study was conducted as described in the “Fosgo-AM PK in Rats” section with the following changes: animals were given 12 mg/kg fosgonimeton in saline with 0.1% glycine via SC injection, and a dose-linear correction was applied to normalize the dose to 10 mg/kg for comparison with the fosgo-AM study. Sample concentrations of both fosgonimeton and fosgo-AM were determined."}}, "note": "Non-standard residues stand in square brackets, D forms with d. Residues, ends and D or L forms follow the SMILES beside them. *: point of attachment. Hexanoyl = CCCCCC(=O)*; Ahx = NCCCCCC(=O)O", "data": [{"smiles": "CCCCCC(=O)N[C@@H](Cc1ccc(O)cc1)C(=O)N[C@H](C(=O)NCCCCCC(N)=O)[C@@H](C)CC", "note": "[fosgo-AM] (Hexanoyl-Tyr-Ile-[Ahx]-NH2)", "values": [{"measurement": "Cmax, ng/g ± SEM", "setting": "[1]", "result": "7.9 ± 2.3", "unit": "ng/g"}, {"measurement": "pERK levels", "setting": "ERK (Thr202/Tyr204)", "result": "significant increase"}, {"measurement": "enhancement of pMET levels in the presence of low HGF", "setting": "MET receptor", "result": "most potent positive modulator of HGF/MET"}, {"measurement": "fosgo-AM maximum concentration (Cmax) in plasma", "setting": "[2]; after SC delivery of fosgonimeton (12 mg/kg, normalized to 10 mg/kg), after metabolism", "result": 1198, "unit": "ng/mL"}, {"measurement": "fosgo-AM maximum concentration (Cmax) in plasma", "setting": "[2]; after direct SC delivery of fosgo-AM 10 mg/kg", "result": 329, "unit": "ng/mL"}]}]}
